Reference: ChEMBL document CHEMBL5244280, “Evodiamine Lowers Blood Lipids by Up-Regulating the PPARγ/ABCG1 Pathway in High-Fat-Diet-Fed Mice” (J Nat Prod, 2021)

Test system: HEK293
Test: Agonist activity at human PPAR-beta expressed in HEK293 cells co-transfected with luciferase reporter plasmid assessed as receptor transactivation at 10 nM incubated for 18 hrs by luciferase reporter gene assay relative to control
Assay type: cell-based
Settings: filed as agonist

Question: For Cc1cc(SCc2sc(-c3ccc(C(F)(F)F)c(F)c3)nc2C)ccc1OCC(=O)O, which fold change (FC) is on record?
Answer: 18.3
